Test results as given in PubChem BioAssay (NCI).
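All cell lines were grown in 96-well plates and treated with compound for 48 hours. The concentration for full growth arrest is given as TGI.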

Key:
Experiment in all cases: growth of human tumour cells (NCI), 48 h
786-0 renal = tested on: 786-0 renal
A549 NSCLC = tested on: A549 NSCLC
ACHN renal = tested on: ACHN renal
CAKI-1 renal = tested on: CAKI-1 renal
COLO 205 colon = tested on: COLO 205 colon
DLD-1 colon = tested on: DLD-1 colon
DMS 273 small cell lung = tested on: DMS 273 small cell lung
HCC-2998 colon = tested on: HCC-2998 colon
HCT-116 colon = tested on: HCT-116 colon
HCT-15 colon = tested on: HCT-15 colon
HL-60(TB) leukemia = tested on: HL-60(TB) leukemia
HOP-62 NSCLC = tested on: HOP-62 NSCLC
HOP-92 NSCLC = tested on: HOP-92 NSCLC
HT29 colon = tested on: HT29 colon
IGROV1 ovarian = tested on: IGROV1 ovarian
K-562 leukemia = tested on: K-562 leukemia
KM12 colon = tested on: KM12 colon
KM20L2 colon = tested on: KM20L2 colon
LOX IMVI melanoma = tested on: LOX IMVI melanoma
LXFL 529 NSCLC = tested on: LXFL 529 NSCLC
M14 melanoma = tested on: M14 melanoma
M19-MEL melanoma = tested on: M19-MEL melanoma
MALME-3M melanoma = tested on: MALME-3M melanoma
MOLT-4 leukemia = tested on: MOLT-4 leukemia
NCI-H226 lung = tested on: NCI-H226 lung
NCI-H23 lung = tested on: NCI-H23 lung
NCI-H460 lung = tested on: NCI-H460 lung
NCI-H522 lung = tested on: NCI-H522 lung
OVCAR-3 ovarian = tested on: OVCAR-3 ovarian
OVCAR-4 ovarian = tested on: OVCAR-4 ovarian
OVCAR-5 ovarian = tested on: OVCAR-5 ovarian
OVCAR-8 ovarian = tested on: OVCAR-8 ovarian
RPMI-8226 leukemia = tested on: RPMI-8226 leukemia
SF-268 CNS = tested on: SF-268 CNS
SF-295 CNS = tested on: SF-295 CNS
SF-539 CNS = tested on: SF-539 CNS
SK-MEL-2 melanoma = tested on: SK-MEL-2 melanoma
SK-MEL-28 melanoma = tested on: SK-MEL-28 melanoma
SK-OV-3 ovarian = tested on: SK-OV-3 ovarian
SN12C renal = tested on: SN12C renal
SNB-19 CNS = tested on: SNB-19 CNS
SNB-75 CNS = tested on: SNB-75 CNS
SNB-78 CNS = tested on: SNB-78 CNS
SR leukemia = tested on: SR leukemia
SW-620 colon = tested on: SW-620 colon
TK-10 renal = tested on: TK-10 renal
U251 CNS = tested on: U251 CNS
UACC-257 melanoma = tested on: UACC-257 melanoma
UACC-62 melanoma = tested on: UACC-62 melanoma
UO-31 renal = tested on: UO-31 renal
XF 498 CNS = tested on: XF 498 CNS
A498 renal = tested on: A498 renal
CCRF-CEM leukemia = tested on: CCRF-CEM leukemia
DMS 114 small cell lung = tested on: DMS 114 small cell lung
EKVX NSCLC = tested on: EKVX NSCLC
RXF 393 renal = tested on: RXF 393 renal
SK-MEL-5 melanoma = tested on: SK-MEL-5 melanoma
BT-549 breast = tested on: BT-549 breast
DU-145 prostate = tested on: DU-145 prostate
HS 578T breast = tested on: HS 578T breast
MCF7 breast = tested on: MCF7 breast
MDA-MB-231 breast = tested on: MDA-MB-231 breast
MDA-MB-435 = tested on: MDA-MB-435
MDA-N = tested on: MDA-N
NCI/ADR-RES ovarian = tested on: NCI/ADR-RES ovarian
PC-3 prostate = tested on: PC-3 prostate
T-47D breast = tested on: T-47D breast

O=C(COc1ccccc1Cl)N1N=C(c2ccccc2)CC1(O)c1ccccc1 (stereo not drawn)
TGI (786-0 renal): 31 µM | TGI (A549 NSCLC): 44.4 µM | TGI (ACHN renal): 55.7 µM | TGI (CAKI-1 renal): 91.8 µM | TGI (COLO 205 colon): 33.9 µM | TGI (DLD-1 colon): 53.7 µM | TGI (DMS 273 small cell lung): 31.8 µM | TGI (HCC-2998 colon): 33.6 µM | TGI (HCT-116 colon): 51.3 µM | TGI (HCT-15 colon): 33.6 µM | TGI (HL-60(TB) leukemia): 30.6 µM | TGI (HOP-62 NSCLC): 28.5 µM | TGI (HOP-92 NSCLC): 42.3 µM | TGI (HT29 colon): 30.7 µM | TGI (IGROV1 ovarian): 55.7 µM | TGI (K-562 leukemia): 54.9 µM | TGI (KM12 colon): 41.8 µM | TGI (KM20L2 colon): 29.6 µM | TGI (LOX IMVI melanoma): 30.4 µM | TGI (LXFL 529 NSCLC): > 100 µM | TGI (M14 melanoma): 31.9 µM | TGI (M19-MEL melanoma): 41.6 µM | TGI (MALME-3M melanoma): 31.7 µM | TGI (MOLT-4 leukemia): 58.8 µM | TGI (NCI-H226 lung): 35.9 µM | TGI (NCI-H23 lung): 25.1 µM | TGI (NCI-H460 lung): 32 µM | TGI (NCI-H522 lung): > 100 µM | TGI (OVCAR-3 ovarian): 33.6 µM | TGI (OVCAR-4 ovarian): 23.4 µM | TGI (OVCAR-5 ovarian): 33.5 µM | TGI (OVCAR-8 ovarian): 32.1 µM | TGI (RPMI-8226 leukemia): 32.9 µM | TGI (SF-268 CNS): > 100 µM | TGI (SF-295 CNS): 34.8 µM | TGI (SF-539 CNS): 34.2 µM | TGI (SK-MEL-2 melanoma): 36.8 µM | TGI (SK-MEL-28 melanoma): 31.7 µM | TGI (SK-OV-3 ovarian): 47.7 µM | TGI (SN12C renal): 25.6 µM | TGI (SNB-19 CNS): 45.4 µM | TGI (SNB-75 CNS): > 100 µM | TGI (SNB-78 CNS): 43.2 µM | TGI (SR leukemia): 32.8 µM | TGI (SW-620 colon): 79.1 µM | TGI (TK-10 renal): 49.2 µM | TGI (U251 CNS): 23.9 µM | TGI (UACC-257 melanoma): 45.2 µM | TGI (UACC-62 melanoma): 33.5 µM | TGI (UO-31 renal): 35.9 µM | TGI (XF 498 CNS): 35.5 µM

CCCCCCCCCCNCCSSCc1ccc(Cl)cc1
TGI (786-0 renal): 24.2 µM | TGI (A498 renal): 28.4 µM | TGI (A549 NSCLC): 3.59 µM | TGI (ACHN renal): 18.5 µM | TGI (CAKI-1 renal): 7.15 µM | TGI (CCRF-CEM leukemia): 4.87 µM | TGI (COLO 205 colon): 5.95 µM | TGI (DMS 114 small cell lung): 3.23 µM | TGI (DMS 273 small cell lung): 2.99 µM | TGI (EKVX NSCLC): 5.14 µM | TGI (HCT-116 colon): 3.14 µM | TGI (HCT-15 colon): 6.54 µM | TGI (HT29 colon): 3.74 µM | TGI (IGROV1 ovarian): 7.62 µM | TGI (K-562 leukemia): 5.27 µM | TGI (KM20L2 colon): 3.07 µM | TGI (LXFL 529 NSCLC): 2.9 µM | TGI (M14 melanoma): 1.17 µM | TGI (M19-MEL melanoma): 3.58 µM | TGI (MALME-3M melanoma): 7.69 µM | TGI (MOLT-4 leukemia): 3.08 µM | TGI (NCI-H522 lung): 3.18 µM | TGI (OVCAR-4 ovarian): 3.09 µM | TGI (OVCAR-5 ovarian): 3.72 µM | TGI (OVCAR-8 ovarian): 3.8 µM | TGI (RXF 393 renal): 11.6 µM | TGI (SF-295 CNS): 4.79 µM | TGI (SF-539 CNS): 3.64 µM | TGI (SK-MEL-5 melanoma): 1.88 µM | TGI (SK-OV-3 ovarian): 8.22 µM | TGI (SN12C renal): 3.86 µM | TGI (SNB-75 CNS): 20.6 µM | TGI (SW-620 colon): 3.02 µM | TGI (TK-10 renal): 4.04 µM | TGI (U251 CNS): 10.2 µM | TGI (UACC-257 melanoma): 2.31 µM | TGI (UO-31 renal): 4.84 µM | TGI (XF 498 CNS): 5.22 µM

N[C@H]1c2c(Br)sc(Br)c2C(=O)[C@H]1O
TGI (786-0 renal): 34.5 µM | TGI (A498 renal): > 100 µM | TGI (A549 NSCLC): 70.1 µM | TGI (ACHN renal): > 64.6 µM | TGI (BT-549 breast): 16.5 µM | TGI (CAKI-1 renal): 16.7 µM | TGI (CCRF-CEM leukemia): 6.63 µM | TGI (COLO 205 colon): 22.2 µM | TGI (DU-145 prostate): 39.4 µM | TGI (EKVX NSCLC): 30.2 µM | TGI (HCC-2998 colon): 27.5 µM | TGI (HCT-116 colon): 34.9 µM | TGI (HCT-15 colon): 24.3 µM | TGI (HL-60(TB) leukemia): 10.5 µM | TGI (HOP-62 NSCLC): 36.5 µM | TGI (HOP-92 NSCLC): 38.9 µM | TGI (HS 578T breast): > 87.8 µM | TGI (HT29 colon): 30.8 µM | TGI (IGROV1 ovarian): 32.8 µM | TGI (K-562 leukemia): 15.2 µM | TGI (KM12 colon): > 100 µM | TGI (LOX IMVI melanoma): 10.6 µM | TGI (M14 melanoma): 48.4 µM | TGI (MALME-3M melanoma): 29.6 µM | TGI (MCF7 breast): 34.8 µM | TGI (MDA-MB-231 breast): 36.1 µM | TGI (MDA-MB-435): 36.7 µM | TGI (MDA-N): 30.1 µM | TGI (MOLT-4 leukemia): > 22 µM | TGI (NCI-H226 lung): 62 µM | TGI (NCI-H23 lung): 17.5 µM | TGI (NCI-H460 lung): 35.6 µM | TGI (NCI-H522 lung): 8.97 µM | TGI (NCI/ADR-RES ovarian): > 58.9 µM | TGI (OVCAR-3 ovarian): > 61.9 µM | TGI (OVCAR-4 ovarian): 27 µM | TGI (OVCAR-5 ovarian): 60.7 µM | TGI (OVCAR-8 ovarian): 43.7 µM | TGI (PC-3 prostate): > 75.1 µM | TGI (RPMI-8226 leukemia): 57.4 µM | TGI (RXF 393 renal): 16.2 µM | TGI (SF-268 CNS): > 68.1 µM | TGI (SF-295 CNS): 51.1 µM | TGI (SF-539 CNS): 36 µM | TGI (SK-MEL-2 melanoma): 69.9 µM | TGI (SK-MEL-28 melanoma): 26.7 µM | TGI (SK-MEL-5 melanoma): 41.8 µM | TGI (SK-OV-3 ovarian): 38.3 µM | TGI (SN12C renal): 3.63 µM | TGI (SNB-19 CNS): 55.5 µM | TGI (SNB-75 CNS): 79.7 µM | TGI (SR leukemia): 5.79 µM | TGI (SW-620 colon): 25.8 µM | TGI (T-47D breast): 50.3 µM | TGI (TK-10 renal): > 100 µM | TGI (U251 CNS): 29.7 µM | TGI (UACC-257 melanoma): 29.7 µM | TGI (UACC-62 melanoma): 23.7 µM | TGI (UO-31 renal): 47.2 µM
